Source: patent US20150374673A1, “Combination Therapy for the Treatment of Nosocomial Pneumonia” (priority 2013, published 2015)

How the values were obtained:
K. pneumoniae = test: MIC, CLSI broth microdilution in CAMHB with 0-10% pulmonary surfactant (avibactam fixed at 4 μg/mL in combination); type: cell-based; settings: Klebsiella pneumoniae
P. aeruginosa [1] = test: Neutropenic thigh infection model (CD-1 mice), exposure response of ceftazidime q2h and avibactam; type: in vivo, Pseudomonas aeruginosa; settings: ceftazidime monotherapy q2h
Procedure: CD-1 neutropenic mice were infected with appr. 10^6 cfu β-lactamase-producing P. aeruginosa strains in the thigh.
Outbred female CD-1 mice (Charles River, Netherlands), 4 to 5 weeks old, weighing 20 to 25 g were used in the experiments. Granulocytopenia was induced by two doses of cyclophosphamide s.c.: one at four days (150 mg/kg) and the other at one day (100 mg/kg) before the infection experiment.
The neutropenic mice were infected with 2 P. aeruginosa strains per animal, one in the left and one in the right thigh. 0.05 mL of bacterial suspension consisting of approximately 10^5-10^6 bacteria was inoculated intramuscularly. […] All dosing regimens were performed in at least two animals. At t=0 h, 2 mice were humanely sacrificed to determine the initial inoculum just before treatment. All other animals were sacrificed at t=24 h unless the welfare of the animals indicated earlier termination was necessary, following animal welfare regulations. Thighs were taken and moved to a pre-cooled 10-mL plastic tube (Transport Tube, Omnilabo, NL) ? containing 2 mL phosphate buffered saline (PBS; NaCl 8.00 g/L, Na2HPO42H2 1.44 g/L, KH2PO4 0.26 g/L, pH 7.2-7.4). Subsequently thighs were ground using an Ultra-Turrax (IKA Labortechnik, Germany). A tenfold dilution series was prepared and 3×10 μL plated (Chromagar, Biomerieux, NL) per dilution. The following day, colonies were counted and the number of cfu per thigh calculated. The drug effect was then determined as the difference between the log10[cfu/thigh] values at t=24 h and t=0 h (mean value of 2 mice) expressed as “dcfu”.
The amount of avibactam administered varied in frequency and dose. […] The drug effect was determined as the difference between the log10 [cfu/thigh] values at t=24 h and t=0 h (mean value of 2 mice) expressed as dcfu. Free drug concentrations were used in all calculations. […] Oral presentation at the ? 52nd Interscience Conference on Antimicrobial Agents and Chemotherapy, San Francisco, Calif. Abstract #A-1760).

P. aeruginosa [2] = test: In vivo efficacy, ceftazidime human simulated regimen, neutropenic lung infection model (ICR mice); set-up: species or system Pseudomonas aeruginosa; settings: 24 h
Procedure: Groups of mice were administered the ceftazidime regimen beginning two hours after the initiation of infection. All doses were administered as 0.2 mL subcutaneous injections and consisted of three 8-hour dosing intervals (i.e. 24 hours). To serve as control animals, an additional group of mice were administered normal saline at the same volume, route, and frequency as the treatment regimen. Harvesting and processing of lungs from each animal was done as previously described and efficacy was defined as the change in bacterial density, calculated as the change in log10 bacterial CFU obtained for treated mice after 24 h from that of that starting densities observed in 0 h control animals.

CC(C)(O/N=C(\C(=O)N[C@@H]1C(=O)N2C(C(=O)[O-])=C(C[n+]3ccccc3)CS[C@H]12)c1csc(N)n1)C(=O)O [ceftazidime, (6R,7R)-7-[[(2Z)-2-(2-amino-1,3-thiazol-4-yl)-2-(1-hydroxy-2-methyl-1-oxopropan-2-yl)oxyiminoacetyl]amino]-8-oxo-3-(pyridin-1-ium-1-ylmethyl)-5-thia-1-azabicyclo[4.2.0]oct-2-ene-2-carboxylate pentahydrate]
MIC (K. pneumoniae; ATCC700603, K. pneumoniae ARC561 (ATCC 700603; SHV-18, OXA-2, OKP-6), surfactant 0%): 32 µg/mL
MIC (K. pneumoniae; ATCC700603, K. pneumoniae ARC561 (ATCC 700603; SHV-18, OXA-2, OKP-6), surfactant 1%): 32 µg/mL
MIC (K. pneumoniae; ATCC700603, K. pneumoniae ARC561 (ATCC 700603; SHV-18, OXA-2, OKP-6), surfactant 2.5%): 32 µg/mL
MIC (K. pneumoniae; ATCC700603, K. pneumoniae ARC561 (ATCC 700603; SHV-18, OXA-2, OKP-6), surfactant 5%): 32 µg/mL
MIC (K. pneumoniae; ATCC700603, K. pneumoniae ARC561 (ATCC 700603; SHV-18, OXA-2, OKP-6), surfactant 10%): 32 µg/mL
MIC (K. pneumoniae; K. pneumoniae ARC1865 (Primary Screening Panel), surfactant 1%): 0.25 µg/mL
MIC (K. pneumoniae; K. pneumoniae ARC1865 (Primary Screening Panel), surfactant 2.5%): 0.5 µg/mL
MIC (K. pneumoniae; K. pneumoniae ARC1865 (Primary Screening Panel), surfactant 5%): 0.5 µg/mL
MIC (K. pneumoniae; K. pneumoniae ARC1865 (Primary Screening Panel), surfactant 10%): 0.5 µg/mL
MIC (K. pneumoniae; K. pneumoniae ARC1865 (Primary Screening Panel), surfactant concentration cell empty): 0.5 µg/mL
MIC (K. pneumoniae; K. pneumoniae ARC2528 (Clinical isolate), surfactant 0%): 1 µg/mL
MIC (K. pneumoniae; K. pneumoniae ARC2528 (Clinical isolate), surfactant 1%): 2 µg/mL
MIC (K. pneumoniae; K. pneumoniae ARC2528 (Clinical isolate), surfactant 2.5%): 1 µg/mL
MIC (K. pneumoniae; K. pneumoniae ARC2528 (Clinical isolate), surfactant 5%): 1 µg/mL
MIC (K. pneumoniae; K. pneumoniae ARC2528 (Clinical isolate), surfactant 10%): 1 µg/mL
MIC (K. pneumoniae; K. pneumoniae ARC2929 (KPC-3), surfactant 0%): > 64 µg/mL
MIC (K. pneumoniae; K. pneumoniae ARC2929 (KPC-3), surfactant 1%): > 64 µg/mL
MIC (K. pneumoniae; K. pneumoniae ARC2929 (KPC-3), surfactant 2.5%): > 64 µg/mL
MIC (K. pneumoniae; K. pneumoniae ARC2929 (KPC-3), surfactant 5%): > 64 µg/mL
MIC (K. pneumoniae; K. pneumoniae ARC2929 (KPC-3), surfactant 10%): > 64 µg/mL
MIC (K. pneumoniae; K. pneumoniae ARC2945 (KPC-2, SHV-11, TEM-1, OXA-9), surfactant 0%): 64 µg/mL
MIC (K. pneumoniae; K. pneumoniae ARC2945 (KPC-2, SHV-11, TEM-1, OXA-9), surfactant 1%): 64 µg/mL
MIC (K. pneumoniae; K. pneumoniae ARC2945 (KPC-2, SHV-11, TEM-1, OXA-9), surfactant 2.5%): 64 µg/mL
MIC (K. pneumoniae; K. pneumoniae ARC2945 (KPC-2, SHV-11, TEM-1, OXA-9), surfactant 5%): 64 µg/mL
MIC (K. pneumoniae; K. pneumoniae ARC2945 (KPC-2, SHV-11, TEM-1, OXA-9), surfactant 10%): 64 µg/mL
MIC (K. pneumoniae; K. pneumoniae ARC3713 (CTX-M-15, OXA-1/30, SHV-5, TEM-1), surfactant 0%): > 64 µg/mL
MIC (K. pneumoniae; K. pneumoniae ARC3713 (CTX-M-15, OXA-1/30, SHV-5, TEM-1), surfactant 1%): > 64 µg/mL
MIC (K. pneumoniae; K. pneumoniae ARC3713 (CTX-M-15, OXA-1/30, SHV-5, TEM-1), surfactant 2.5%): > 64 µg/mL
MIC (K. pneumoniae; K. pneumoniae ARC3713 (CTX-M-15, OXA-1/30, SHV-5, TEM-1), surfactant 5%): > 64 µg/mL
MIC (K. pneumoniae; K. pneumoniae ARC3713 (CTX-M-15, OXA-1/30, SHV-5, TEM-1), surfactant 10%): > 64 µg/mL
static % fT > MIC (CAZ) (P. aeruginosa [1]; isolate no. 1): no effect
static % fT > MIC (CAZ) (P. aeruginosa [1]; isolate no. 3): 0%
static % fT > MIC (CAZ) (P. aeruginosa [1]; isolate no. 5): 3%
static % fT > MIC (CAZ) (P. aeruginosa [1]; isolate no. 7): 7.2%
static % fT > MIC (CAZ) (P. aeruginosa [1]; isolate no. 11): no effect
static % fT > MIC (CAZ) (P. aeruginosa [1]; isolate no. 18): 9%
static % fT > MIC (CAZ) (P. aeruginosa [1]; isolate no. 19): 38%
Change log CFU Mean (P. aeruginosa [2]; isolate PSA 1-25, control 0 h 6.21, 24 h 10.01): 6.42 log CFU
Change log CFU Mean (P. aeruginosa [2]; isolate PSA 3-9, control 0 h 6.45, 24 h 7.77): 6.48 log CFU
Change log CFU Mean (P. aeruginosa [2]; isolate PSA 4-32, control 0 h 5.56, 24 h 9.34): 3.57 log CFU
Change log CFU Mean (P. aeruginosa [2]; isolate PSA 4-36, control 0 h 6.53, 24 h 9.72): 5.01 log CFU
Change log CFU Mean (P. aeruginosa [2]; isolate PSA 4-84, control 0 h 6.16, 24 h 9.66): 4.88 log CFU
Change log CFU Mean (P. aeruginosa [2]; isolate PSA 8-16, control 0 h 5.93, 24 h 9.94): 5.38 log CFU
Change log CFU Mean (P. aeruginosa [2]; isolate PSA 22, control 0 h 5.99, 24 h 9.15): 4.83 log CFU
Change log CFU Mean (P. aeruginosa [2]; isolate PSA 28-19, control 0 h 6.46, 24 h 9.8): 5.07 log CFU
Change log CFU Mean (P. aeruginosa [2]; isolate PSA 37-8, control 0 h 6.02, 24 h 8.26): 3.8 log CFU
